# Experimental data published in patent US6492530B1, “Amorphous form of cell cycle inhibitor having improved solubility and bioavailability” (Hoffmann-La Roche Inc., priority 2000, dated 2002).
# “Also recorded” adds a separate entry of the source.
# Experiments:
# [1] = Bioavailability / pharmacokinetics in beagle dogs after single oral dose; type: in vivo
# Experimental: Additionally, preparations containing crystalline compound of formula I (Examples IIIB and IIIC) and amorphous compound of formula I (Example IIA) were evaluated for bioavailability in beagle dogs with body weight of approximately 10 kg. Each dog was given a formulation containing 90 mg of compound of formula I. Blood samples were collected from each dog prior to dosing (0 h) and at 0.5, 1, 2, 4, 6, 8, 12, 24, 36 and 48 hours after dosing. EDTA was used as an anticoagulant. Each plasma sample was separated after cold centrifugation and frozen in an amber vial at a minimum of −60° C. before analysis. Compound of formula I was extracted from plasma and the plasma concentration of compound of formula I was determined using a positive ion TurbolonSpray LC-MS/MS assay[HPLC using HP1100 LC system, Hewleft-Packard, Inc. (Agilent Technologies, Wilmington, Del.) and Mass Spectrometer using PE-Sciex API-3+ (Perkin-Elmer Instruments, Wilton, Conn.), Ionization mode: Turbulonspray, 500C, positive ion] The calibration range was 1 to 1,000 ng/mL using a 100-μL plasma sample. […]
# [2] = Two-stage dissolution method (water, then 6% SLS in phosphate buffer pH 6.8); type: physicochemical; conditions: FIG. 6 dissolution profile, Example IIA versus Example IIIA
# Experimental: The formulation of Example IIIA containing crystalline compound of formula I (Example IIIA) and the formulation of (Example IIA) containing amorphous compound of formula I were evaluated for dissolution by a two-stage (two dissolution media) dissolution method. At Stage I, 300 mL of deionized water at 37°±0.5° C. using paddles at 75 rpm was used. At Stage II, 600 mL of 6% w/v Sodium Lauryl Sulfate in 0.015M Phosphate Buffer, pH 6.8 equilibrated at 37°±0.5° C., was carefully added into the dissolution vessel 25 minutes after the Stage I dissolution was initiated. Sample aliquots were taken at different time intervals and analyzed by UV spectrophotometry.
# [3] = Stability of the amorphous form under accelerated storage (powder X-ray diffraction); type: physicochemical; conditions: 40° C./75% RH, closed glass vial for 6 months, independent of form stabilizers; FIG. 5
# [4] = physchem; conditions: aqueous media at physiological pHs, aqueous buffer
# Excerpt: A crystalline form of the compound of formula I is known. See, e.g., U.S. Pat. No. Re. 36,736. […] (Id. column 22, lines 5-6). […] See, e.g. U.S. Pat. No. 6,048,887 and EP 0 988,863.
bioavailability as compared to the crystalline form ([1]; amorphous versus crystalline form),solubility versus crystalline form [2],"bioavailability ([1]; dog, in vivo, in dogs, previously known crystalline form (background statement))",solubility [4],SMILES,retention of amorphous form on storage [3]
approximately 15 fold,much more soluble,–,–,"Cn1cc(C2=C(c3cn(C)c4cc([N+](=O)[O-])ccc34)C(=O)NC2=O)c2ccccc21 [amorphous compound of formula I, 3-(1-methyl-3-indolyl)-4-(1-methyl-6-nitro-3-indolyl)-1H-pyrrole-2,5,-dione]",maintained its amorphous properties; also recorded: remained in its amorphous form
–,–,< 5%,< 10 µg/mL,"Cn1cc(C2=C(c3cn(C)c4cc([N+](=O)[O-])ccc34)C(=O)NC2=O)c2ccccc21 [crystalline compound of formula I, 3-(1-methyl-3-indolyl)-4-(1-methyl-6-nitro-3-indolyl)-1H-pyrrole-2,5,-dione, reference compound]",–
